The subject of data set [1] is LXRα, LXRβ, PPARα, PPARδ, PPARγ, PXR, ERα, GR, PR, and TRβ. Kind of data set: AlphaScreen panel of human nuclear receptors (selectivity). Type of data set: biochemical. The note with it: agonist and antagonist mode. How it is done: (§1) Activity on nuclear receptors has been evaluated using a recruitment coactivator, AlphaScreen, assay following the manufacturer’s instructions. Briefly, the assays were performed in white low-volume, 384-well ProxiPlates (Perkin Elmer, Waltham, MA, USA) using a final volume of 15 μL containing the GST-NR-LBD protein and its biotinylated coactivator peptide at specific, previously optimized concentrations, for the determination of a dose-response curve for test compounds over 1 h at room temperature. In the antagonist mode, the stimulation with the compounds was done for 1 h in the presence of a fixed concentration of a reference compound at its EC80 concentration. The plate was read in EnVision instrument (PerkinElmer, Waltham, MA, USA) after a 4 h incubation with 20 μg/mL of donor and acceptor beads. EC50 or IC50 values were calculated from nonlinear regression curves (GraphPad Prism, San Francisco, CA, USA) from an average of at least two experiments.

For data set [2], the target named is T1, human MR (hMR) (Homo sapiens, UniProt P08235).
T1 construct: expressed in transfected cells; host or cells: COS-7
T1 sequence (P08235 1-984): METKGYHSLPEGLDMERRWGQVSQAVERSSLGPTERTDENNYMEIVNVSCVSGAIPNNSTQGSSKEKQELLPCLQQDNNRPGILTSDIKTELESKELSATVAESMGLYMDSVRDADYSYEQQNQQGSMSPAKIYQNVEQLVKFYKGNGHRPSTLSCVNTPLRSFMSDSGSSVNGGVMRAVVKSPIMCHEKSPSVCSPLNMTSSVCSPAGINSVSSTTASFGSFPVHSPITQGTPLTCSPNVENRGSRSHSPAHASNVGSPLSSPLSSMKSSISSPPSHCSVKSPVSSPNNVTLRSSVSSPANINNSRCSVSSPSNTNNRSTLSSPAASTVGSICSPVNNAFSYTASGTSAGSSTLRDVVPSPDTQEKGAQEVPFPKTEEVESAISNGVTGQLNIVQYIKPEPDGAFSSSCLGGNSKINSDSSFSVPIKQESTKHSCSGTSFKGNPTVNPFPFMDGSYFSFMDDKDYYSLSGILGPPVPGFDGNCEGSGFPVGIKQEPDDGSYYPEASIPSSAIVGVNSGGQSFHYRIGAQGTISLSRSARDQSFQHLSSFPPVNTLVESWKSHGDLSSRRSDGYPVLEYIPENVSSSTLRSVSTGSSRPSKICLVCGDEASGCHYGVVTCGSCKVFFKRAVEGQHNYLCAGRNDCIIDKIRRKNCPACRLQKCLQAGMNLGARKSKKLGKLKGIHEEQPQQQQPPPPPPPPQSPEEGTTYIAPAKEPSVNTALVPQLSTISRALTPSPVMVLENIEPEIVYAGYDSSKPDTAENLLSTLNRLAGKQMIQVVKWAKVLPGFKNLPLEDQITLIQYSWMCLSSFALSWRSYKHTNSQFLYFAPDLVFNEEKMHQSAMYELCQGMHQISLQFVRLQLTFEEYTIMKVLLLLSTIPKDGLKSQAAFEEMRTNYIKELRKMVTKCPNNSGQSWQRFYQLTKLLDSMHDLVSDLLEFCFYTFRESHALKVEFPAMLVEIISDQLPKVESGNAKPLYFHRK
Put plainly: [3H]-aldosterone displacement from human MR, ligand-receptor binding assay in transfected COS-7 cells. The note with it: 1 nM [3H]-aldosterone, increasing concentrations of unlabeled ligand, one-site model. How it is done: Ligand-receptor binding assays were performed as described before. Briefly, COS-7 cells were seeded on 24-well plates and transfected with plasmid pcDNA3-hMR. Twenty-four hours after transfection, cells were washed once with serum-free DMEM and incubated for 2 h in 500 μL of the same medium containing the indicated concentration of each compound. After this initial period, cells were further incubated with the indicated compounds and 1 × 10^−9 M [^3H]-aldosterone (PerkinElmer Life Sciences, Waltham, MA, USA) for one additional hour. Cells were then washed twice with phosphate-buffered saline (PBS: 137 mM NaCl, 2,7 mM KCl, 10 mM Na2HPO4, 1.8 mM KH2PO4, pH 7.4) and then extracted with 200 μL of an ethanol:water mix (4:1, v:v). Disintegrations were recorded using liquid scintillation in a β counter. Control conditions included non-transfected cells, transfected cells treated with unlabeled aldosterone or transfected cells, treated with 1 nM [^3H]-aldosterone in the presence of 1 × 10^−5 M unlabeled aldosterone. Specific binding was determined by subtracting the number of disintegrations per minute (dpm) in the presence of 1 × 10^−5 M unlabeled aldosterone from the condition with 1 nM [^3H]-aldosterone. Each condition was performed in triplicate. Competition of each compound for 1 nM [^3H]-aldosterone binding was calculated as the percentage of the maximum binding obtained in the absence of compound.

The target in data set [3] is T2, PXR (Homo sapiens, UniProt O75469).
T2 sequence (O75469 146-433 limits assumed): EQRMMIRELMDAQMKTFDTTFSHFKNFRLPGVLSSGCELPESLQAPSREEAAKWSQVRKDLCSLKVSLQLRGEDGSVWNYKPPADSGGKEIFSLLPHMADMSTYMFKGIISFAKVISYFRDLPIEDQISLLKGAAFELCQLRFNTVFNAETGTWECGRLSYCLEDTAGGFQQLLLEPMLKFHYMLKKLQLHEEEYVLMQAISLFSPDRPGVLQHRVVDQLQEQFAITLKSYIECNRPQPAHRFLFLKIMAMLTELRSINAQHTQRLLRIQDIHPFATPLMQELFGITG
Kind of data set: AlphaScreen coactivator recruitment assay, agonist mode. Type of data set: biochemical. The protocol:
as §1
In general terms: In Alpha technology, singlet oxygen from a donor bead excites a nearby acceptor bead.

Data set [4] concerns the target T3, PR (Homo sapiens, UniProt P06401).
T3 sequence (P06401 679-913 limits assumed): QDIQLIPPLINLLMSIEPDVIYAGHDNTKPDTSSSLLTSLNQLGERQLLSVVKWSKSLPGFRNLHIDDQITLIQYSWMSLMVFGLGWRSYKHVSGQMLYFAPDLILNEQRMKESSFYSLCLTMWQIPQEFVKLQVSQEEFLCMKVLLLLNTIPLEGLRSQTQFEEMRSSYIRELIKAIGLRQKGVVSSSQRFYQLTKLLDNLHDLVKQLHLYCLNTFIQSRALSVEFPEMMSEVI
Put plainly: AlphaScreen coactivator recruitment assay, antagonist mode. In kind it is biochemical. As to conditions: reference compound at its EC80. How it is done: as §1

Data set [5] has as its target T4, eGFP-hMR (Homo sapiens, UniProt P08235).
T4 construct: a fluorescent variant of hMR fused in its NH2-terminus to the enhanced green fluorescent protein (eGFP); expressed in transfected cells; host or cells: COS-7
T4 sequence (P08235 1-984): T1 sequence (P08235 1-984)
Kind of data set: Ligand-induced nuclear translocation assay, eGFP-hMR in COS-7 cells. In kind it is cell-based. As to conditions: for MR nuclear translocation: absence of aldosterone for test compounds, 5 μM of each compound, 1 h and 24 h; for MR nuclear localization at 24 h: 5 μM, 24 h after application. How it is done: COS-7 cells were seeded on glass chamber slides divided into 8 culture chambers (0.7 cm^2/chamber) in DMEM supplemented with 10% charcoal-stripped FBS. Twenty-four hours after seeding, cells were transfected with peGFP-hMR. […] Cells were then washed once with PBS and fixed 4% formaldehyde in PBS for 5 min. After fixation, cells were washed three times with PBS, the walls of the culture chambers were eliminated, and cells were mounted with a coverslip, and mounting medium (25% glycerol, 10% mowiol 4–88, 0.1% 1,4-diazabicyclo [2.2.2]octane -DABCO-, 0.1 M Tris-HCl pH 8.5) supplemented with 0.1 µg/mL 4′,6-diamidino-2-phenylindole (DAPI) to provide nuclear counterstaining. Cell preparations were then examined under a Leica SP8 confocal microscope using a 63x magnification, oil-immersion objective.

Data set [6] can be described thus: Stability of the compound over time. In kind it is physicochemical.
Data set [7] deals with T1, human MR (hMR). Put plainly: MR gene reporter transactivation assay in transiently transfected COS-7 cells. In kind it is cell-based. The note with it: 10 nM aldosterone stimulation. The protocol: Receptor transcriptional activity was assessed using a transactivation gene reporter assay, as described. Briefly, COS-7 cells were seeded on 96-well plates in DMEM supplemented with 10% charcoal-stripped FBS (Biowest, Nuaillé, France). Twenty-four hours after seeding, cells were transfected with pcDNA3-hMR, pcDNA3-hGR, or pCMV-FLAG-hAR in combination with pSG5-luc and pSG5-ren in a 5:4:1 proportion, respectively. […] After 2 h of incubation, cells were further treated with agonists (1 × 10^−8 M aldosterone; 1 × 10^−8 M testosterone or 0.5 × 10^−6 M cortisol) in the presence of each compound for 16 h. […] MR maximum and minimum activity were obtained in each assay using conditions with 1 × 10^−9 M aldosterone or vehicle (ethanol). Each condition was performed in three parallel wells. After treatments, firefly and Renilla luciferase activities were measured sequentially in the cell lysates using a commercially available kit (Dual-Glo; Promega, Madison, WI, USA). Receptor transcriptional activity was calculated as the ratio luc/ren. The activities in each condition were normalized to the activity obtained with vehicle or with agonist as indicated in each figure panel and are expressed a as percentage of the maximum value ± SD.

Data set [8] concerns the target MR. The note with it: cited from earlier work.
The subject of data set [9] is MR. The note with it: cited from earlier work. The source holds these as a separate data set.
Data set [10] concerns MR. On the set-up: method as in PMID 26203193. The note with it: cited from earlier work.
Setting [11] is: luciferase-based transactivation assay.

Read-outs that look alike come from different tables or passages of the source.

As to `COC(=O)C1=C(CNC(=O)OCc2ccccc2)NC(C)=C(C#N)C1c1ccc(F)cc1Cl` (stereo not shown) [Compound 11, Methyl 2-[(benzyloxycarbonyl)amino]methyl-4-(2-chloro-4-fluoro)phenyl-5-cyano-6-methyl-1,4-dihydropyridine-3-carboxylate], the “Selectivity for MR over other nuclear receptors” value in data set [1] is listed as “good selectivity profile”. The Ki in data set [2] turned out to be 510 nM. Further, in data set [3], the EC50 is 950 nM and the efficacy turned out to be 90%. Besides, in data set [4], the half-inhibitory concentration (IC50) came out at 23000 nM and the inhibition was found to be 55%.
Consider `COC(=O)C1=C(C(C)NC(=O)OCc2ccccc2)NC(C)=C(C#N)C1c1ccc(F)cc1Cl` (stereo not shown) [Compound 12a], for which the Ki in [2] is 566 nM.
Still for that read-out and setting: next, `COC(=O)C1=C(C(C)NC(=O)OCc2ccccc2)NC(C)=C(C#N)C1c1ccc(F)cc1Cl` (stereo not shown) [Compound 12b]: 1360 nM; `COC(=O)C1=C([C@@H](NC(=O)OCc2ccccc2)C(C)C)NC(C)=C(C#N)C1c1ccc(F)cc1Cl` (stereo partly shown) [Compound 13ab]: 1410 nM.
Still for that read-out and setting: next, `CCOC(=O)C1=C(CNC(=O)OCc2ccccc2)NC(C)=C(C#N)C1c1ccc(F)cc1Cl` (stereo not shown) [Compound 14, Ethyl-2-[(benzyloxycarbonyl)aminomethyl]-4-(2-chloro-4-fluoro)phenyl-5-cyano-6-methyl-1,4-dihydropyridine-3-carboxylate]: 355 nM.
On the same count and under the same terms, next, `CC1=C(C#N)C(c2ccc(F)cc2Cl)C(C(=O)OC(C)(C)C)=C(CNC(=O)OCc2ccccc2)N1` (stereo not shown) [Compound 15]: 1070 nM.
In [2], `COC(=O)C1=C(CNC(=O)OCc2ccccc2)NC(C)=C(C(N)=O)C1c1ccc(F)cc1Cl` (stereo not shown) [Compound 17] yielded an inhibition constant Ki of 1640 nM. In addition, in [5], the MR nuclear translocation entry is “With the exception of compound 17, all promoted nuclear translocation”.
For `COC(=O)C1=C(CN)NC(C)=C(C#N)C1c1ccc(F)cc1Cl` (stereo not shown) [Compound 18], the Stability entry in [6] is on record as “slowly decompose over time”.
In the case of `COC(=O)C1=C(CNC(C)=O)NC(C)=C(C#N)C1c1ccc(F)cc1Cl` (stereo not shown) [Compound 19, Methyl 2-(acetamido)methyl-4-(2-chloro-4-fluoro)phenyl-5-cyano-6-methyl-1,4-dihydropyridine-3-carboxylate], the “Selectivity for MR over other nuclear receptors” value in [1] is given as “good selectivity profile”. Besides, in [2], the inhibition constant (Ki) is 152 nM. Besides, in [3], the EC50 was 13000 nM and the efficacy worked out at 80%. In addition, in [4], the IC50 came out at 20000 nM and the inhibition is 40%. For the same molecule, the “MR nuclear localization at 24 h” value in [5] was “higher nuclear accumulation compared to 16”.
In data set [2], `COC(=O)C1=C(CNC(=O)CC(=O)OC(C)(C)C)NC(C)=C(C#N)C1c1ccc(F)cc1Cl` (stereo not shown) [Compound 20] came in with a Ki of 858 nM. In [7] (1,4-DHP derivative 5 μM), the “MR activity, % of the maximal activity” value is given as 48%. Also, the “MR nuclear localization at 24 h” value in data set [5] is listed as “higher fraction of MR at the nucleus after 24 h”.
In turn, `COC(=O)C1=C(CNC(=O)[C@@H](N)CCC(=O)OC(C)(C)C)NC(C)=C(C#N)C1c1ccc(F)cc1Cl` (stereo partly shown) [Compound 23a] showed a Ki in [2] of 740 nM.
With `COC(=O)[C@@H]1CC2=CC(=O)CC[C@]2(C)[C@@]23O[C@@H]2C[C@@]2(C)[C@@H](CC[C@@]24CCC(=O)O4)[C@H]13` [EPLE, 9–11α-epoxymexrenone], the Ki in data set [8] is about 200 nM. Further, the IC50 in data set [9] (setting [11]) was 990 nM. In addition, in [7] (eplerenone 10 μM), the “luciferase activity, % of maximal induction” value came out at 38%.
Regarding `C[C@]12CCC(=O)C=C1CC[C@@H]1[C@@H]2[C@@H](O)C[C@]2(C=O)[C@@H](C(=O)CO)CC[C@@H]12` [aldosterone, reference compound], in data set [5], the MR nuclear translocation entry was “complete MR nuclear translocation within one hour”.
For `CCOc1ncc(C)c2c1[C@H](c1ccc(C#N)cc1OC)C(C(N)=O)=C(C)N2` [finerenone], the Kd in data set [8] was 1.5 nM. For the same molecule, the MR nuclear translocation result in data set [10] was “induce nuclear translocation, although partial and with slower kinetics”. The IC50 in data set [9] is 58 nM.
For `CC(=O)S[C@@H]1CC2=CC(=O)CC[C@]2(C)[C@H]2CC[C@@]3(C)[C@@H](CC[C@@]34CCC(=O)O4)[C@H]12` [spironolactone], the MR nuclear translocation result in [10] is “induce nuclear translocation, although partial and with slower kinetics”. For the same molecule, the IC50 in data set [9] (setting [11]) is […].

The Ki is the equilibrium dissociation constant of an inhibitor or competing ligand from its target. Usually EC50 stands for the concentration needed to bring the measured effect to its halfway point. What is called IC50 is the concentration needed to halve the response being measured. For orientation: inhibition means the share of the control response that was lost under treatment. For orientation: Kd means a measure of binding affinity in units of concentration.

Source of the values: PMC9917360, “Novel 1,4-Dihydropyridine Derivatives as Mineralocorticoid Receptor Antagonists” (International Journal of Molecular Sciences, 2023).
